Measured values reported in ChEMBL document CHEMBL4715897, “A new 1-nitro-9-aminoacridine derivative targeting yeast topoisomerase II able to overcome fluconazole-resistance” (2021).
Values after ≈ are worked out from the molar mass of the structure shown. Active and inactive are the calls of the source. The calls are words filed in the database; no cut-off is given here.

Columns and labels:
Candida albicans [1] = test: Antifungal activity against fluconazole-sensitive Candida albicans Gu4 assessed as reduction in microbial growth; assay type: functional
Candida parapsilosis [2] = test: Antifungal activity against Candida parapsilosis ATCC 22019 assessed as reduction in microbial growth; assay type: functional; conditions: Lodderomyces parapsilosis
Candida albicans [3] = test: Antifungal activity against fluconazole-sensitive Candida albicans B3 assessed as reduction in microbial growth; assay type: functional
Saccharomyces cerevisiae [4] = test: Antifungal activity against Saccharomyces cerevisiae ATCC 9763 assessed as reduction in microbial growth; assay type: functional
Candida albicans [5] = test: Antifungal activity against fluconazole-resistant Candida albicans B4 assessed as reduction in microbial growth; assay type: functional
Candida albicans [6] = test: Antifungal activity against Candida albicans ATCC 10231 assessed as reduction in microbial growth; assay type: functional
Pichia kudriavzevii [7] = test: Antifungal activity against Candida krusei ATCC 6258 assessed as reduction in microbial growth; assay type: functional
Saccharomyces cerevisiae [8] = test: Fungicidal activity against Saccharomyces cerevisiae ATCC 9763; assay type: functional
Pichia kudriavzevii [9] = test: Fungicidal activity against Candida krusei DSM 6128; assay type: functional
Candida albicans [10] = test: Growth inhibition of Candida albicans ATCC 10231 assessed as reduction in yeast to mycelium formation by measuring reduction in hyphal growth at 0.25 MIC after 3 hrs by light microscopic method relative to control; assay type: functional
Candida albicans [11] = test: Antifungal activity against fluconazole-resistant Candida albicans F5 assessed as reduction in microbial growth; assay type: functional
Candida albicans [12] = test: Antifungal activity against fluconazole-sensitive Candida albicans F2 assessed as reduction in microbial growth; assay type: functional
Candida albicans [13] = test: Antibiofilm activity against Candida albicans ATCC 10231 at concentration of 0.25 MIC by XTT assay; assay type: functional, organism-based
Nakaseomyces glabratus [14] = test: Fungicidal activity against Candida glabrata DSM 11226; assay type: functional
[15] = Ratio of MFC for fungicidal activity against Saccharomyces cerevisiae ATCC 9763 to MIC for antifungal activity against Saccharomyces cerevisiae ATCC 9763; assay type: functional
Saccharomyces cerevisiae [16] = test: Inhibition of Saccharomyces cerevisiae DNA topoisomerase 2 assessed as decrease in relaxation of supercoiled DNA using supercoiled pBR322 plasmid DNA at 100 to 150 uM gel electrophoresis method; conditions: dose 100-150 µM
Candida albicans [17] = test: Growth inhibition of Candida albicans ATCC 10231 assessed as reduction in yeast to mycelium formation by measuring reduction in hyphal growth at concentration of 0.25 MIC after 3 hrs in YPG medium by light microscopic method relative to control; assay type: functional, organism-based
Candida albicans [18] = test: Growth inhibition of Candida albicans ATCC 10231 assessed as reduction in yeast to mycelium formation by measuring reduction in hyphal growth at concentration of 0.25 MIC after 3 hrs in G1cNAc medium by light microscopic method relative to control; assay type: functional, organism-based
Candida albicans [19] = test: Antifungal activity against fluconazole-resistant Candida albicans Gu5 assessed as reduction in microbial growth; assay type: functional
Nakaseomyces glabratus [20] = test: Antifungal activity against Candida glabrata ATCC 90030 assessed as reduction in microbial growth; assay type: functional
Candida albicans [21] = test: Antifungal activity against Candida albicans CNCM 1180-79 assessed as reduction in microbial growth incubated for 72 hrs by photometric method; assay type: functional
Candida parapsilosis [22] = test: Fungicidal activity against Candida parapsilosis DSM 5784; assay type: functional; conditions: Lodderomyces parapsilosis
Candida albicans [23] = test: Fungicidal activity against Candida albicans ATCC 10231; assay type: functional
Escherichia coli = test: Antibacterial activity against Escherichia coli ATCC 10536 assessed as reduction in microbial growth incubated for 48 hrs by photometric method; assay type: functional
Staphylococcus aureus = test: Antibacterial activity against Staphylococcus aureus ATCC 9144 assessed as reduction in microbial growth incubated for 48 hrs by photometric method; assay type: functional
Saccharomyces cerevisiae [24] = test: Inhibition of Saccharomyces cerevisiae DNA topoisomerase 2 assessed as decrease in relaxation of supercoiled DNA using supercoiled pBR322 plasmid DNA at 1 to 200 uM gel electrophoresis method; conditions: dose 1-200 µM
Candida = test: Antifungal activity against Candida; assay type: functional
Candida albicans [25] = test: Fungicidal activity against Candida albicans ATCC 10231 assessed as bacterial killing after 5 hrs; assay type: functional, organism-based
Candida albicans [26] = test: Fungicidal activity against Candida albicans ATCC 10231 assessed as bacterial killing at concentration of 0.25 to 4 MIC after 1 hrs relative to control; assay type: functional
Candida albicans [27] = test: Fungicidal activity against Candida albicans ATCC 10231 assessed as bacterial killing at concentration of 2 MIC after 5 hrs relative to control; assay type: functional
Candida albicans [28] = test: Fungicidal activity against Candida albicans ATCC 10231 assessed as bacterial killing at concentration of 0.25 MIC after 5 hrs relative to control; assay type: functional
Candida albicans [29] = test: Fungicidal activity against Candida albicans ATCC 10231 assessed as bacterial killing at concentration of 0.5 MIC after 5 hrs relative to control; assay type: functional
Candida albicans [30] = test: Fungicidal activity against Candida albicans ATCC 10231 assessed as bacterial killing at concentration of MIC after 5 hrs relative to control; assay type: functional
Candida albicans [31] = test: Fungicidal activity against Candida albicans ATCC 10231 assessed as bacterial killing at concentration of 4 MIC after 5 hrs relative to control; assay type: functional

Structure (SMILES) | MIC90 (Candida parapsilosis [2]) | MIC90 (Saccharomyces cerevisiae [4]) | MIC90 (Candida albicans [6]) | MIC90 (Pichia kudriavzevii [7]) | MIC90 (Nakaseomyces glabratus [20]) | MIC90 (Candida albicans [1]) | MIC90 (Candida albicans [3]) | MIC90 (Candida albicans [5]) | MFC (Saccharomyces cerevisiae [8]) | MFC (Pichia kudriavzevii [9]) | growth inhibition (GI) (Candida albicans [10]) | MIC90 (Candida albicans [11]) | MIC90 (Candida albicans [12]) | Activity (Candida albicans [13]) | MFC (Nakaseomyces glabratus [14]) | Ratio [15] | growth inhibition (GI) (Candida albicans [17]) | growth inhibition (GI) (Candida albicans [18]) | MIC90 (Candida albicans [19]) | further results
O=[N+]([O-])c1cccc2nc3ccccc3c(NCCNCCNCCNc3c4ccccc4nc4cccc([N+](=O)[O-])c34)c12 | 32 µg/mL | 8 µg/mL | 64 µg/mL | 32 µg/mL | 32 µg/mL | > 64 µg/mL | > 64 µg/mL | > 64 µg/mL | 16 µg/mL (≈ 27.1 µM) | 32 µg/mL (≈ 54.2 µM) | 100% | > 64 µg/mL | > 64 µg/mL | Active | 32 µg/mL (≈ 54.2 µM) | >=1 | Active | inactive | > 64 µg/mL | inhibition (Saccharomyces cerevisiae [16]): Active
O=[N+]([O-])c1cccc2nc3ccccc3c(NCCO)c12 | 32 µg/mL | 0.25 µg/mL | 2 µg/mL | 8 µg/mL | 16 µg/mL | 4 µg/mL | 2 µg/mL | > 64 µg/mL | 0.25 µg/mL (≈ 0.882 µM) | 32 µg/mL (≈ 113 µM) | inactive | > 64 µg/mL | 4 µg/mL | Active | 32 µg/mL (≈ 113 µM) | >=1 | inactive | inactive | 32 µg/mL | MIC (Candida albicans [21]): 50 µg/mL; MFC (Candida parapsilosis [22]): 64 µg/mL (≈ 226 µM); MFC (Candida albicans [23]): 4 µg/mL (≈ 14.1 µM); MIC (Escherichia coli): 50 µg/mL; MIC (Staphylococcus aureus): 50 µg/mL; inhibition (Saccharomyces cerevisiae [24]): inactive
COc1cc(NS(C)(=O)=O)ccc1Nc1c2ccccc2nc2ccccc12 |  |  |  |  |  |  |  |  |  |  |  |  |  |  |  |  |  |  |  | inhibition (Saccharomyces cerevisiae [16]): Active
COc1cc([C@@H]2c3cc4c(cc3[C@@H](O[C@@H]3O[C@@H]5CO[C@@H](C)O[C@H]5[C@H](O)[C@H]3O)[C@H]3COC(=O)[C@H]23)OCO4)cc(OC)c1O [ETOPOSIDE] |  |  |  |  |  |  |  |  |  |  |  |  |  |  |  |  |  |  |  | MIC (Candida): 50 µg/mL (≈ 85 µM)
Cc1ccc([N+](=O)[O-])c2c(NCCO)c3ccccc3nc12 | 64 µg/mL | 0.5 µg/mL | 1 µg/mL | 8 µg/mL | 8 µg/mL | 4 µg/mL | 4 µg/mL | > 64 µg/mL | 0.5 µg/mL (≈ 1.68 µM) | 16 µg/mL (≈ 53.8 µM) | inactive | > 64 µg/mL | 2 µg/mL | Active | > 64 µg/mL | >=1 | inactive | inactive | 32 µg/mL | Activity (Candida albicans [25]): Dose-dependent effect; Activity (Candida albicans [26]): 10%; Activity (Candida albicans [27]): 70%; MIC (Candida albicans [21]): 50 µg/mL; Activity (Candida albicans [28]): 5%; MFC (Candida albicans [23]): 2 µg/mL (≈ 6.73 µM); Activity (Candida albicans [29]): 5%; MIC (Escherichia coli): 50 µg/mL; MIC (Staphylococcus aureus): 50 µg/mL; inhibition (Saccharomyces cerevisiae [24]): inactive; Activity (Candida albicans [30]): 60%; Activity (Candida albicans [31]): 80%

Further lines, with some results ahead:

MIC90 (Candida parapsilosis [2]) | MIC90 (Saccharomyces cerevisiae [4]) | MIC90 (Candida albicans [6]) | MIC90 (Pichia kudriavzevii [7]) | MIC90 (Nakaseomyces glabratus [20]) | Structure (SMILES) | MIC90 (Candida albicans [1]) | MIC90 (Candida albicans [3]) | MIC90 (Candida albicans [5]) | MFC (Saccharomyces cerevisiae [8]) | MFC (Pichia kudriavzevii [9]) | growth inhibition (GI) (Candida albicans [10]) | MIC90 (Candida albicans [11]) | MIC90 (Candida albicans [12]) | Activity (Candida albicans [13]) | MFC (Nakaseomyces glabratus [14]) | Ratio [15] | growth inhibition (GI) (Candida albicans [17]) | growth inhibition (GI) (Candida albicans [18]) | MIC90 (Candida albicans [19]) | further results
> 16 µg/mL | 4 µg/mL | > 16 µg/mL | > 16 µg/mL | > 16 µg/mL | CN(CCCNc1c2ccccc2nc2cccc([N+](=O)[O-])c12)CCCNc1c2ccccc2nc2cccc([N+](=O)[O-])c12 |  |  |  | 4 µg/mL (≈ 6.78 µM) |  |  |  |  |  |  | >=1 |  |  |  | 
> 16 µg/mL | 8 µg/mL | > 16 µg/mL | > 16 µg/mL | > 16 µg/mL | Cc1ccc([N+](=O)[O-])c2c(NCCCN(C)CCCNc3c4ccccc4nc4c(C)ccc([N+](=O)[O-])c34)c3ccccc3nc12 |  |  |  | 8 µg/mL (≈ 13 µM) |  |  |  |  |  |  | >=1 |  |  |  | 
64 µg/mL | 64 µg/mL | > 64 µg/mL | 64 µg/mL | 64 µg/mL | Cc1ccc(N)c2c(NCCO)c3ccccc3nc12 |  |  |  |  |  |  |  |  |  |  |  |  |  |  | 
> 64 µg/mL | > 64 µg/mL | > 64 µg/mL | > 64 µg/mL | > 64 µg/mL | Nc1cccc2nc3ccccc3c(NCCO)c12 |  |  |  |  |  |  |  |  |  |  |  |  |  |  | 
